In brackets after ≈: the same amount, converted by molar mass.
Tests used:
MT-4 cells = assay: MT-4 cell viability (cytotoxicity); format: cell-based, human; settings: for CC50: concentration reducing MT-4 cell viability by 50%
Protocol: The activity of the compounds against HIV-1 and HIV-2 induced cytopathicity was examined in human lymphocyte MT-4 cells. […]. The infected cell cultures were then incubated at 37° C. for 5 days in a humidified CO2-controlled incubator. Then, the cytopathicity of the virus was examined by determination of MT-4 cell viability by trypan blue dye staining. The results are summarized in Table 1 in comparison with the data on the prototype compounds.

C3H/3T3 cells = assay: Microscopic alteration of C3H/3T3 cell culture morphology; format: cell-based, murine; settings: concentration that results in a microscopic alteration of C3H/3T3 cell culture morphology
HIV-2 = HIV-2 induced cytopathicity in MT-4 cells; format: cell-based, human immunodeficiency virus type 2; settings: for EC50 HIV-2: MT-4 cells, concentration inhibiting HIV-induced cytopathicity by 50%
Protocol: (§1) The activity of the compounds against HIV-1 and HIV-2 induced cytopathicity was examined in human lymphocyte MT-4 cells. […] The infected cell cultures were then incubated at 37° C. for 5 days in a humidified CO2-controlled incubator. Then, the cytopathicity of the virus was examined by determination of MT-4 cell viability by trypan blue dye staining.

HIV-1 = HIV-1 induced cytopathicity in MT-4 cells; format: cell-based, human immunodeficiency virus type 1; settings: for EC50 HIV-1: MT-4 cells, concentration inhibiting HIV-induced cytopathicity by 50%
Protocol: as §1

[1] = system: Moloney murine sarcoma virus (MSV); assay: MSV-induced transformation of C3H/3T3 cells; format: cell-based; settings: concentration inhibiting MSV-induced cell transformation by 50%
Protocol: The cells were seeded in 1-ml-wells of a 48-well microtiter plate and exposed to 80 PFU (plaque forming units) for 60-90 minutes. Then, the virus was removed and culture medium containing appropriate concentrations of the test compounds were added (1 ml per well). At day 6 post infection, MSV-induced transformation of the cell culture was examined microscopically.

retrovirus replication = assay: Anti-retrovirus activity in vitro (conclusions on HIV and MSV tests); format: cell-based
[2] = system: Moloney murine sarcoma virus (MSV); assay: MSV infection in newborn NMRI mice, intraperitoneal administration; format: in vivo; parameters: protection of the animals against MSV-induced tumor development: unit not given here; settings: for antiretroviral activity in vivo (in words): dose of 50 mg/kg i.p.
Protocol: Two gram newborn NMRI mice were injected intramuscularly in the left hind leg with 50 μl of 250-fold diluted stock preparation of Moloney murine sarcoma virus. […] Another group of mice (20 animals) was administered RPMI-1640 medium as placebo. All compounds were solubilized in RPMI-1640 medium. The mice were observed daily for 20 days and the day of tumor initiation and the day of animal death was recorded for each animal. Statistical analyses were performed by calculating the standard deviation.

herpes viruses = settings: racemic mixtures, prior art; cited from earlier work
[3] = system: Moloney murine sarcoma virus (MSV); assay: MSV infection in three-week-old NMRI mice, oral administration; format: in vivo; settings: twice a day, 100 mg/kg (total dose) daily for five days
Protocol: Three-week-old NMRI mice (about 10 grams body weight) were injected intramuscularly in the left hind leg with 50 μl of 20-fold diluted stock preparation of Moloney murine sarcoma virus. Starting 2-4 hours before virus infection,six animals received an orally administered test compound twice a day at 100 mg/kg(total dose) daily for five subsequent days. The control (placebo) group consisted of 14 animals. The experiment was evaluated as described in Example 35.

[4] = 2 mg/kg single dose i.p., NMRI mice
[5] = 5 mg/kg single dose i.p., NMRI mice
[6] = 10 mg/kg single dose i.p., NMRI mice
[7] = 20 mg/kg single dose i.p., NMRI mice
[8] = 50 mg/kg single dose i.p., NMRI mice
[9] = 25 mg/kg single dose i.p., NMRI mice

Compound | CC50 (MT-4 cells) [µg/mL] | MIC (C3H/3T3 cells) [µg/mL] | EC50 HIV-2 (HIV-2) [µg/mL] | EC50 HIV-1 (HIV-1) [µg/mL] | EC50 MSV [1] [µg/mL] | percentage of MSV-infected mice still alive at day 20 post infection ([2]; 10 mg/kg single dose i.p.) | Mean day of tumor initiation [2, 6] [days] | percentage of MSV-infected mice still alive at day 20 post infection ([2]; 20 mg/kg single dose i.p.) | percentage of MSV-infected mice without tumor at day 20 post infection ([2]; 20 mg/kg single dose i.p.) | Mean day of tumor initiation [2, 7] [days] | percentage of MSV-infected mice still alive at day 20 post infection ([2]; 50 mg/kg single dose i.p.) | percentage of MSV-infected mice without tumor at day 20 post infection ([2]; 50 mg/kg single dose i.p.) | Mean day of tumor initiation [2, 8] [days] | further results
C[C@H](Cn1cnc2c(=O)[nH]c(N)nc21)OCP(=O)(O)O [(R)-PMPG, 9-(R)-(2-Phosphonomethoxypropyl)guanine] | >100 | 40 (≈ 132 µM) | 1.7 (≈ 5.61 µM) | 1.8 (≈ 5.94 µM) | 0.15 (≈ 0.495 µM) |  |  |  |  |  |  |  |  | 
C[C@H](Cn1cnc2c(N)ncnc21)OCP(=O)(O)O [(R)-PMPA, 9-(R)-(2-Phosphonomethoxypropyl)adenine] | >100 | >100 |  | 1.7 (≈ 5.92 µM) | 0.99 (≈ 3.45 µM) | (85%) | 12.9 ± 2.2 | (100%) | (80%) | 13.5 ± 3.5 | (100%) | (100%) | >20 | concentration markedly inhibitory to retrovirus replication (retrovirus replication; in vitro): 1 to 2 µg/mL; Mean day of tumor initiation [2, 4]: 5.3 ± 1.1 days; percentage of MSV-infected mice still alive at day 20 post infection ([2]; 5 mg/kg single dose i.p.): (20%); percentage of MSV-infected mice without tumor at day 20 post infection ([2]; 5 mg/kg single dose i.p.): (10%); Mean day of tumor initiation [2, 5]: 7.11 ± 1.5 days; percentage of MSV-infected mice without tumor at day 20 post infection ([2]; 10 mg/kg single dose i.p.): (75%); Mean day of animal death [2, 7]: >20 days; protection against MSV-induced tumor development (in words) ([2]; single dose of 50 mg/kg i.p.): full protection
Nc1nc(N)c2ncn(C[C@H](CF)OCP(=O)(O)O)c2n1 [(R)-FPMPDAP, reference compound] | >100 | >100 | 1.5 (≈ 4.68 µM) | 1.4 (≈ 4.37 µM) | 1.7 (≈ 5.31 µM) |  | 5.6 ± 1.0 |  |  |  | (10%) |  | 7.75 ± 1.3 | percentage of MSV-infected mice still alive at day 20 post infection ([2]; 25 mg/kg single dose i.p.): (15%); Mean day of tumor initiation [2, 9]: 7.7 ± 1.9 days
C[C@H](Cn1cnc2c(N)ncnc21)OCP(=O)(O)O [PMPA] |  |  |  |  |  |  |  |  |  |  |  |  |  | antiherpetic effect (in words) (herpes viruses): devoid of any appreciable antiherpetic effect
Nc1nc(N)c2ncn(C[C@@H](CF)OCP(=O)(O)O)c2n1 [(S)-FPMPDAP] | >100 | >100 | 3.3 (≈ 10.3 µM) | 4.8 (≈ 15 µM) | 1.7 (≈ 5.31 µM) | (33%) | 8.5 ± 2.6 |  |  |  | (67%) | (17%) | 11.0 ± 2.1 | Mean day of tumor initiation [2, 9]: 8.3 ± 1.8 days
C[C@@H](Cn1cnc2c(N)ncnc21)OCP(=O)(O)O [(S)-PMPA, 9-(S)-(2-Phosphonomethoxypropyl)adenine] | >100 | >100 | 63 (≈ 219 µM) | 78 (≈ 272 µM) | 120 (≈ 418 µM) |  | 4.7 ± 0.95 |  |  | 4.5 ± 0.71 |  |  | 5.8 ± 0.63 | antiretroviral activity in vitro (in words) (retrovirus replication): devoid of marked antiretroviral activity; antiretroviral activity in vivo (in words) [2]: no marked antiretroviral activity in vivo
C[C@@H](Cn1cnc2c(N)nc(N)nc21)OCP(=O)(O)O [(S)-PMPDAP, 9-(S)-(2-Phosphonomethoxypropyl)-2.6-Diaminopurine] | >100 | >100 | 4.0 (≈ 13.2 µM) | 2.0 (≈ 6.62 µM) | 2.9 (≈ 9.6 µM) |  |  |  |  |  |  |  |  | 
CC(Cn1cnc2c(=O)[nH]c(N)nc21)OCP(=O)(O)O (stereo not drawn) [PMPG] |  |  |  |  |  |  |  |  |  |  |  |  |  | antiherpetic effect (in words) (herpes viruses): appeared due to its substantial cytotoxicity
Nc1ncnc2c1ncn2C[C@H](CF)OCP(=O)(O)O [(R)-FPMPA, reference compound] | >100 | >100 | 54 (≈ 177 µM) | 83 (≈ 272 µM) | >100 |  |  |  |  | 4.3 ± 0.48 |  |  | 4.7 ± 0.67 | 
C[C@@H](Cn1cnc2c(=O)[nH]c(N)nc21)OCP(=O)(O)O [(S)-PMPG, 9-(S)-(2-Phosphonomethoxypropyl)guanine] | 45 (≈ 148 µM) | 8 (≈ 26.4 µM) | 1.3 (≈ 4.29 µM) | 1.2 (≈ 3.96 µM) | 0.95 (≈ 3.13 µM) |  |  |  |  |  |  |  |  | 
Nc1ncnc2c1ncn2CCOCP(=O)(O)O [PMEA] | 67 (≈ 245 µM) | >100 |  |  |  | (43%) | 9.8 ± 1.9 | (66%) | (44%) | 10.6 ± 2.0 | (90%) | (90%) | 9.0 | percentage of MSV-infected mice without tumor at day 20 post infection ([2]; 10 mg/kg single dose i.p.): (24%); Mean day of animal death [2, 6]: 14.2 ± 2.5 days; Mean day of animal death [2, 7]: 14.7 ± 1.8 days; Mean day of animal death [2, 8]: 16.0 days
Nc1ncnc2c1ncn2C[C@@H](CF)OCP(=O)(O)O [(S)-FPMPA] | >100 | >100 | 2.6 (≈ 8.52 µM) | 2.7 (≈ 8.85 µM) | 1.5 (≈ 4.91 µM) | (40%) | 7.7 ± 2.4 | (55%) | (31%) | 11 ± 2.7 | (100%) | (100%) | >20 | antiretroviral activity in vivo (in words) [2]: no marked antiretroviral activity in vivo
C[C@H](Cn1cnc2c(N)nc(N)nc21)OCP(=O)(O)O [(R)-PMPDAP, 9-(R)-(2-Phosphonomethoxypropyl)-2,6-Diaminopurine] | >100 | >100 | 0.06 (≈ 0.199 µM) | 0.05 (≈ 0.165 µM) | 0.14 (≈ 0.463 µM) | (90) % | 11.5 | (95) % | (95) % | 11 |  |  |  | EC50 retrovirus replication (retrovirus replication; in vitro): 0.01 to 0.1 µg/mL; concentration non-toxic to the cells (MT-4 cells): 100 µg/mL; selectivity index (ratio cytotoxic dose/antivirally active dose) (HIV-2; HIV-2): > 2000; Mean day of tumor initiation [3]: 7.5 ± 1.0^*) day; Number of mice developing tumor (%) [3]: 67%; selectivity index (ratio cytotoxic dose/antivirally active dose) (HIV-1; HIV-1): > 2000; Mean day of tumor initiation [2, 4]: 11 days; percentage of MSV-infected mice still alive at day 20 post infection ([2]; 5 mg/kg single dose i.p.): (90) %; percentage of MSV-infected mice without tumor at day 20 post infection ([2]; 5 mg/kg single dose i.p.): (70) %; Mean day of tumor initiation [2, 5]: 12.8 days; percentage of MSV-infected mice without tumor at day 20 post infection ([2]; 10 mg/kg single dose i.p.): (90) %; anti-MSV activity in vivo relative to (R)-PMPA ([2]; i.p., NMRI mice): five fold superior over (R)-PMPA; protection of the animals against MSV-induced tumor development ([2]; single dose of 10-20 mg/kg i.p.): 90-95
